According to patent publication US10765114B2, “4-amino-6-(pyridyl and 2-substitutedphenyl)-picolinates and 6-amino-2-(pyridyl and 2-substitutedphenyl)-pyrimidine-4-carboxylates and their use as herbicides” (Dow AgroSciences LLC, priority 2013, dated 2020):

How the values were obtained:
Experiment in all cases: Post-Emergent Test III (Wheat and Barley)
[1] = system: APESV (windgrass); type: in vivo, Apera spica-venti; conditions: for pest or weed control at 35 g/ha / pest or weed control at 70 g/ha / pest or weed control at 140 g/ha: Apera spica-venti, post-emergence, 504 h, postemergence, read-out: Visual Growth Reduction (%) 21 Days After Application, APESV; for pest or weed control at 35 g/ha: 35 g ai/ha; for pest or weed control at 70 g/ha: 70 g ai/ha; for pest or weed control at 140 g/ha: 140 g ai/ha; for GR50, APESV: effective dose for growth reduction of 50 percent; for GR50, APESV / GR80, APESV: probit analysis; for GR80, APESV: effective dose for growth reduction of 80 percent
How it was run: (§1)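 Injury was rated visually on a 0 to 100 percent scale 21 days after treatment, relative to untreated plants, and probit analysis of multiple dose rates gave growth-reduction values. Plants at the second or third true leaf stage had been track-sprayed at 187 L/ha.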

[2] = system: TRZSS; type: in vivo; conditions: for pest or weed control at 35 g/ha / pest or weed control at 70 g/ha / pest or weed control at 140 g/ha: Triticum aestivum, post-emergence, 504 h, postemergence, read-out: Visual Growth Reduction (%) 21 Days After Application, TRZSS; for pest or weed control at 35 g/ha: 35 g ai/ha; for pest or weed control at 70 g/ha: 70 g ai/ha; for pest or weed control at 140 g/ha: 140 g ai/ha; for GR20, TRZSS: effective dose for growth reduction of 20 percent, probit analysis
How it was run: as §1

[3] = system: HORSS; type: in vivo; conditions: for pest or weed control at 35 g/ha / pest or weed control at 70 g/ha / pest or weed control at 140 g/ha: Hordeum vulgare, post-emergence, 504 h, postemergence, read-out: Visual Growth Reduction (%) 21 Days After Application, HORSS; for pest or weed control at 35 g/ha: 35 g ai/ha; for pest or weed control at 70 g/ha: 70 g ai/ha; for pest or weed control at 140 g/ha: 140 g ai/ha; for GR20, HORSS: effective dose for growth reduction of 20 percent, probit analysis
How it was run: as §1

[4] = system: LOLSS; type: in vivo; conditions: for GR50, LOLSS: effective dose for growth reduction of 50 percent; for GR50, LOLSS / GR80, LOLSS: probit analysis; for GR80, LOLSS: effective dose for growth reduction of 80 percent; for pest or weed control at 35 g/ha / pest or weed control at 70 g/ha / pest or weed control at 140 g/ha: post-emergence, 504 h, postemergence, read-out: Visual Growth Reduction (%) 21 Days After Application, LOLSS; for pest or weed control at 35 g/ha: 35 g ai/ha; for pest or weed control at 70 g/ha: 70 g ai/ha; for pest or weed control at 140 g/ha: 140 g ai/ha
How it was run: as §1

[5] = system: KCHSC (kochia); type: in vivo, Kochia scoparia; conditions: for pest or weed control at 35 g/ha / pest or weed control at 70 g/ha / pest or weed control at 140 g/ha: Bassia scoparia, post-emergence, 504 h, postemergence, read-out: Visual Growth Reduction (%) 21 Days After Application, KCHSC; for pest or weed control at 35 g/ha: 35 g ai/ha; for pest or weed control at 70 g/ha: 70 g ai/ha; for pest or weed control at 140 g/ha: 140 g ai/ha; for GR50, KCHSC: effective dose for growth reduction of 50 percent; for GR50, KCHSC / GR80, KCHSC: probit analysis; for GR80, KCHSC: effective dose for growth reduction of 80 percent
How it was run: as §1

[6] = system: SETVI (green foxtail); type: in vivo, Setaria viridis; conditions: for pest or weed control at 35 g/ha / pest or weed control at 70 g/ha / pest or weed control at 140 g/ha: Setaria viridis, post-emergence, 504 h, postemergence, read-out: Visual Growth Reduction (%) 21 Days After Application, SETVI; for pest or weed control at 35 g/ha: 35 g ai/ha; for pest or weed control at 70 g/ha: 70 g ai/ha; for pest or weed control at 140 g/ha: 140 g ai/ha; for GR50, SETVI: effective dose for growth reduction of 50 percent; for GR50, SETVI / GR80, SETVI: probit analysis; for GR80, SETVI: effective dose for growth reduction of 80 percent
How it was run: as §1

[7] = system: ALOMY (blackgrass); type: in vivo, Alopecurus myosuroides; conditions: for pest or weed control at 35 g/ha / pest or weed control at 70 g/ha / pest or weed control at 140 g/ha: Alopecurus myosuroides, post-emergence, 504 h, postemergence, read-out: Visual Growth Reduction (%) 21 Days After Application, ALOMY; for pest or weed control at 35 g/ha: 35 g ai/ha; for pest or weed control at 70 g/ha: 70 g ai/ha; for pest or weed control at 140 g/ha: 140 g ai/ha; for GR50, ALOMY: effective dose for growth reduction of 50 percent; for GR50, ALOMY / GR80, ALOMY: probit analysis; for GR80, ALOMY: effective dose for growth reduction of 80 percent
How it was run: as §1

SMILES	pest or weed control at 35 g/ha [1] [%]	pest or weed control at 70 g/ha [1] [%]	pest or weed control at 140 g/ha [1] [%]	GR50, APESV [1] [g ai/ha]	GR80, APESV [1] [g ai/ha]	pest or weed control at 35 g/ha [2] [%]	pest or weed control at 70 g/ha [2] [%]	pest or weed control at 140 g/ha [2] [%]	GR20, TRZSS [2] [g ai/ha]	pest or weed control at 35 g/ha [3] [%]	pest or weed control at 70 g/ha [3] [%]	pest or weed control at 140 g/ha [3] [%]	GR20, HORSS [3] [g ai/ha]	GR50, LOLSS [4] [g ai/ha]	GR80, LOLSS [4] [g ai/ha]	pest or weed control at 35 g/ha [4] [%]	pest or weed control at 70 g/ha [4] [%]	pest or weed control at 140 g/ha [4] [%]	pest or weed control at 35 g/ha [5] [%]	pest or weed control at 70 g/ha [5] [%]	further results
Nc1c(Cl)c(C(=O)O)nc(-c2ccc(C(F)(F)F)nc2)c1Cl [Compound 33]	0 to 29	60 to 74	60 to 74	70	134	75 to 84	75 to 84	85 to 94	1	75 to 84	85 to 94	85 to 94	1	>140	>140	0 to 29	0 to 29	30 to 44	0 to 29	45 to 59	pest or weed control at 140 g/ha [5]: 60 to 74%; GR50, KCHSC [5]: 95 g ai/ha; GR80, KCHSC [5]: >140 g ai/ha; pest or weed control at 35 g/ha [6]: 45 to 59%; pest or weed control at 70 g/ha [6]: 60 to 74%; pest or weed control at 140 g/ha [6]: 60 to 74%; GR50, SETVI [6]: 48 g ai/ha; GR80, SETVI [6]: >140 g ai/ha; pest or weed control at 35 g/ha [7]: 60 to 74%; pest or weed control at 70 g/ha [7]: 75 to 84%; pest or weed control at 140 g/ha [7]: 85 to 94%; GR50, ALOMY [7]: 37 g ai/ha; GR80, ALOMY [7]: 72 g ai/ha
COC(=O)c1nc(-c2ccc(OC(F)F)nc2)c(F)c(N)c1Cl [Compound 71]	0 to 29	0 to 29	30 to 44	>140	>140	60 to 74	75 to 84	85 to 94	16	30 to 44	60 to 74	75 to 84	26	>140	>140	0 to 29	0 to 29	30 to 44	0 to 29	60 to 74	pest or weed control at 140 g/ha [5]: 60 to 74%; GR50, KCHSC [5]: 80 g ai/ha; GR80, KCHSC [5]: >140 g ai/ha; pest or weed control at 35 g/ha [6]: 30 to 44%; pest or weed control at 70 g/ha [6]: 45 to 59%; pest or weed control at 140 g/ha [6]: 75 to 84%; GR50, SETVI [6]: 72 g ai/ha; GR80, SETVI [6]: >140 g ai/ha; pest or weed control at 35 g/ha [7]: 0 to 29%; pest or weed control at 70 g/ha [7]: 0 to 29%; pest or weed control at 140 g/ha [7]: 30 to 44%; GR50, ALOMY [7]: >140 g ai/ha; GR80, ALOMY [7]: >140 g ai/ha
